Source: US20210330756A1, “Acetylation of Miro1” (University of South Carolina, priority 2020, published 2021)

Test system: growth cones of adult DRG neurons
Assay: Growth cone area/size of DRG sensory axons (DIC imaging)
Type: cell-based, rat
Procedure: HDAC6 inhibition increases growth cone size of sensory axons. Given our previous work showing that HDAC6 inhibition allows axons to grow on MAG and CSPG substrates (Rivieccio et al., 2009; Butler et al., 2010), we asked how inhibition of HDAC6 alters axon growth in cultures of adult dorsal root ganglion (DRG) neurons. […] (A) Quantification of neurite length for dissociated DRGs cultured on laminin with addition of HDAC6 inhibitor TubA (10 μm) versus vehicle control (DMSO) over 1 h is shown as average fold-change relative to vehicle±SEM (n≥95 neurons across three independent experiments; NS by one-way ANOVA with Bonferroni post hoc). (B and C) show representative DIC images of distal axons from DRG neurons cultured as in A are shown (B). 1-h TubA treatment appears to increase growth cone size. Analyses of growth cone area across multiple experiments show a significant increase in area after TubA treatment (C). Values are average fold-change±SEM (n≥26 neurons over at least three culture preparations; ***, P≤0.005 by one-way ANOVA with Bonferroni post hoc; scale bar=5 μm; 40×/1.3 NA objective used). […] Prominent HDAC6 signals are seen in distal axons and growth cones (arrows) regardless of TubA exposure. […]
NF-stained cultures were used for neurite growth analyses. […] The growth cone area was measured using ImageJ software from these annotated DIC images. […]

CN1CCc2c(c3ccccc3n2Cc2ccc(C(=O)NO)cc2)C1 [TubA, tubastatin]
time after exposure at which growth cone enlargement was apparent (10 μM TubA, time-lapse DIC): ≤ 10 min
growth cone size vs vehicle controls (10 μM, 1 h, laminin): significantly larger growth cones
